Results published in patent US20180078576A1, “SULPHATED XYLANS FOR TREATMENT OR PROPHYLAXIS OF RESPIRATORY DISEASES” (Paradigm Biopharmaceuticals Limited, priority 2007, published 2018).

Assays:
[1] = target: T1, recombinant human eotaxin (CCL11) (Homo sapiens, UniProt P51671); assay: BIAcore inhibition of eotaxin-1 binding to immobilized heparin; details: BIAcore chip, FIG. 3D
T1 construct: host or cells: E. coli
Excerpt: The optical phenomenon of surface plasmon resonance is used to monitor physical interactions between molecules. Passing a solution of a potential protein ligand (e.g. IL-4, IL-5 or eotaxin) over a sensor surface to which a target (e.g. heparin) is coupled monitors the real-time binding of protein ligands to the immobilized target. Detection is achieved by measuring refractive index changes very close to the sensor surface. When the refractive index is altered, the angle at which plasmon resonance occurs changes and this change directly correlates with the amount of protein interacting with the surface. A BIAcore 2000 is conveniently used. […]
Biotinylated heparin is immobilized on the biosensor chip. […] Solutions containing potential protein ligands of interest are injected over the sensor chip surface, and the binding is measured in real time (Fernig, In: Proteoglycan protocols, Ed. R. V. Iozzo, Humana Press, Totowa, N.J., USA, 2001). Baculovirus expressed recombinant human IL-4 (rhIL-4) and baculovirus expressed recombinant human IL-5 (rhIL-5) readily bind to heparin immobilized by this method (see PCT/AU2005/000551). […] Similarly, recombinant human eotaxin (CCL11) expressed in E. coli binds readily to immobilized heparin and binding is specific as there is little eotaxin binding to sensor chips lacking heparin. […]

Elastase = target: T2, Elastase (Homo sapiens, UniProt P08246); assay: Elastase activity on collagen substrate; format: biochemical; details: collagen coated wells, 37° C., 30 minutes
T2 sequence (P08246 30-267): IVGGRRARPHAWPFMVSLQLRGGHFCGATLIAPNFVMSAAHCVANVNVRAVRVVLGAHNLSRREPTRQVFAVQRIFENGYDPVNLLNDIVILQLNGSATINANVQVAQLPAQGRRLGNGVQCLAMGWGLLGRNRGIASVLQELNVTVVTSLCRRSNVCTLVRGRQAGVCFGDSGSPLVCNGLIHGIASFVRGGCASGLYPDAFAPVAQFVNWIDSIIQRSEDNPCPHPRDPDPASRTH
Description: Elastase activity was also measured using a physiological substrate, collagen. For these experiments collagen was coated onto the wells of a microplate. Tris buffer (50 μl) was added together with 25 μl of either inhibitor (PPS or other sulfated polysaccharides) or buffer. The plate was incubated at 37° C. for 30 minutes, before staining the wells for protein. After drying the wells at room temperature the remaining colour was dissolved by adding 200 μl of lysis solution (10% w/v SDS in DMSO) and the OD measured at […]. Control experiments include collagen without enzyme digestion as 100% values and with enzyme digestion but without inhibitor as 0% values.

IL-13 = IL-13 (Homo sapiens, UniProt P35225); assay: IL-13 dependent proliferation of TF-1 cells; format: cell-based
Sequence of IL-13 (P35225 25-146): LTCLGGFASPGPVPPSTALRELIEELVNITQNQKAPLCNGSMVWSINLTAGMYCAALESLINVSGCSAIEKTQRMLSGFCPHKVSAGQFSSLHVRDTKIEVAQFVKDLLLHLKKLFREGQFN
Excerpt: IL-13 is a cytokine with a key role in asthma and allergic disease (including allergic rhinitis) and it seems particularly important in […] the airway hyperreactivity seen with asthma (Wills-Karp, Immunol. Rev. 202:175-190, 2004). […] Pentosan polysulfate (PPS) and a DP5 sulfated xylan inhibited the proliferation of a human IL-13 responsive cell line. This occurs at very low doses and is not due to a toxic effect of the PPS because other, similarly sulfated polysaccharides, at the same concentrations of IL-13 and polysaccharide have no effect. These experiments utilize the TF-1 cells. TF-1 cells were originally established from a bone marrow sample from a person with severe pancytopenia. […]
The proliferation assays are carried out in 96-well microplates suitable for such assays (Falcon). […] The cells are counted with a Coulter Z2 Particle Counter and Size Analyzer (Coulter Electronics, England) and routinely 2.5×10^4 cells are added to microplate wells that contain either no IL-13 (negative control) or various dilutions of IL-13. When the effect of PPS is to be measured, the wells also contain various concentrations of this molecule. The cells proliferate for 48 hours at 37° C. in a humidified atmosphere, after which the number of cells present is quantified by staining with the AQUEOUS ONE dye (30 μl/well) for 3 hours and then absorbance is read at 490 nm.

human IL-8 = target: T3, human IL-8 (Homo sapiens, UniProt P10145); assay: IL-8 induced migration of DMSO treated HL-60 cells (chemotaxis); format: cell-based; details: 50 μg/ml, IL-8 20 ng/ml
T3 sequence (P10145 21-99): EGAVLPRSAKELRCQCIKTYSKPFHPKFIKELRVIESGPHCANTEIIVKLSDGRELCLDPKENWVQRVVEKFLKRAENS
Description: Chemokines known to play an important role in mediating the inflammation associated with COPD include IL-8, MCP-1 and MIP-1α (Barnes 2004, supra). […] These experiments were performed using DMSO treated human promyelocytic HL-60 cells. These cells were derived from a patient with acute promyelocytic leukemia. The cells were treated with DMSO (1.2%) for 4 days before being used in the experiments. The chemotaxis assays were performed in 96-well Costar chemotaxis plates consisting of a bottom chamber to which was added the human IL-8 (+/−inhibitor) and then cells in RPMI and 1% v/v FCS were added to a top chamber and the plate was incubated at 37° C. for 1 hour to allow cells to move from the top chamber into the bottom. The number of cells migrating into the bottom chamber was quantified by labeling with AQUEOUS ONE (20 μl/well) for 1.75 hours before absorbance at 490 nm is read. IL-8 was used at a final concentration of 20 ng/ml and the inhibitors were the sulfated xylan pentasaccharide (10 and 50 μg/ml) and pentosan polysulfate (10 and 50 μg/ml). Cell migration is compared with that seen with no IL-8 or with IL-8 and no inhibitor.

T1 sequence (P51671 24-97): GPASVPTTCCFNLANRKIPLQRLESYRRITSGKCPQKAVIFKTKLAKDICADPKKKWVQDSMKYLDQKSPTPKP

Substance: Pentosan polysulfate [PPS]
- IC50 [1]: ~15 nM
- Inhibition of elastase activity on collagen (in words) (Elastase): effective elastase inhibitor
- Inhibition of IL-13 dependent proliferation of TF-1 cells (in words) (IL-13; FIG. 16, IL-13 2.5 ng/ml): markedly inhibit
- IL-13 mediated cell proliferation blocked (IL-13; PPS concentrations of 5-10 μg/ml, TF-1 cells, 48 hours): 75-80%
- Inhibition of cell migration triggered by IL-8 (human IL-8): 74%
